Assays:
[1] = log P determination by HPLC (reversed-phase C18), EEC Directive 79/831 Annex V.A8; type: physicochemical; settings: reversed-phase C18 HPLC column; pH 2.3; HPLC reversed-phase C18, 43° C.
Protocol: The log P values given in the table were determined in accordance with EEC Directive 79/831 Annex V.A8 by HPLC (High Performance Liquid Chromatography) using a reversed-phase column (C 18). Temperature: 43° C. (a) Mobile phases for the determination in the acidic range: 0.1% aqueous phosphoric acetonitrile; linear gradient from 10% acetonitrile to 90% acetonitrile—the sponding measurement results in Table 1 are marked ^a). (b) Mobile phases for the determination in the neutral range: 0.01 molar aqueous phosphate buffer solution, acetonitrile; linear gradient from 10% acetonitrile to 90% acetonitrile—the corresponding measurement results in Table 1 are marked^b). Calibration was carried out using unbranched alkan-2-ones (with 3 to 16 carbon atoms) with known log P values (determination of the log P values by the retention times using linear interpolation between two successive alkanones).

weeds [2] = assay: Pre-emergence test (Example A), activity against weeds; type: in vivo; settings: soil sprayed 24 hours after sowing, rated after three weeks
Description: (§1) Solvent: 5 parts by weight of acetone
(§2) Emulsifier: 1 part by weight of alkylaryl polyglycol ether
Seeds of the test plants are sown in normal soil.
(§3) After three weeks, the degree of damage to the plants is rated in % damage in comparison to the development of the untreated control.

weeds [3] = assay: Post-emergence test (Example B), activity against weeds; type: in vivo; settings: test plants 5-15 cm sprayed, rated after three weeks
Description: as §1, §2, §3

| Structure (SMILES) | chromatographic logP [1] | activity against weeds (degree of damage) (weeds [2]) | activity against weeds (degree of damage) (weeds [3]) |
| --- | --- | --- | --- |
| COC(=O)c1occc1COc1cc(-n2c(=O)cc(C(F)(F)F)n(C)c2=O)c(F)cc1Br [Example 2, methyl 3-[2-bromo-5-(2,6-dioxo-3-methyl-4-trifluoromethyl-3,6-dihydro-2H-pyrimidin-1-yl)-4-fluorophenoxymethyl]furan-2-carboxylate] | 3.34 | very strong activity against weeds | very strong activity against weeds |
| COC(=O)c1ccoc1COc1cc(-n2c(=O)cc(C(F)(F)F)n(N)c2=O)c(F)cc1Br [Example 3, methyl 2-[2-bromo-5-(3-amino-2,6-dioxo-4-trifluoromethyl-3,6-dihydro-2H-pyrimidin-1-yl)-4-fluorophenoxymethyl]furan-3-carboxylate] | 3 | very strong activity against weeds | very strong activity against weeds |

Source: patent US20050288185A1, “Substituted phenyluracils” (priority 2002, published 2005)
